The target of one assay is human P2X7 channel (Homo sapiens (Human), UniProt Q99572). Description: human P2X7 channel assay by automated patch-clamp (QPatch16X), BzATP-evoked current. To be noted: HEK-293 cells expressing P2X7, whole-cell voltage clamp, 100 microM BzATP, holding -80 mV; read-out: hP2X7 (IC50; nM). The class given is cell-based. Here is the method:
In order to directly monitor the block of P2X7 channel, an electrophysiological assay was developed and implemented on the QPatch16X automated electrophysiology instrument.
HEK-293 cells expressing the P2X7 channels were cultured in modified EMEM.
72 hours before experiment, 5 million cells were seeded onto T225 flasks. Just before the experiment cells were washed twice, detached from the flask with trypsin-EDTA, re-suspended in the suspension solution and placed on the QPatch 16x.
The compounds (20 mM in a 100% DMSO) stored at −20° C. were prepared the day of the experiment (a first dilution 1:20 in 100% DMSO to prepare a 1 mM stock solution, then a 1 microM solution in external solution+a serial dilution 1:10).
The standard whole-cell voltage clamp experiments were performed at room temperature. For these experiments the multihole technology was used and the data were sampled at 2 KHz.
After establishment of the seal and the passage in the whole cell configuration, the cells were held at −80 mV. The P2XR7 current was evoked by applying 100 microM of BzATP alone (4 times) and then in the presence increasing concentrations of the compound under investigation (1, 10, 100 and 1000 nM).
The pre-incubation periods 5 to 8 contain increasing concentrations of the compound of interest (1, 10, 100 and 1000 nM), as illustrated in FIGURE.
The maximal inward current evoked by BzATP in absence or presence of increasing concentrations of the compounds under investigation was measured and normalized.
Y: normalized response, 100% down to 0%, decreasing as X increases.
LogIC50: same log units as X
HillSlope: slope factor or HS, unitless
Background: In patch-clamp work, channel activity is measured electrically.

The next assay deals with rat P2X7R (Rattus norvegicus (Rat), UniProt Q64663). Description: rat P2X7 Ca2+ influx, Screen Quest Fluo-8 No Wash Calcium Assay Kit (FLIPR TETRA). The class given is cell-based. To be noted: read-out: rP2X7 (IC50; nM). As to the method: Ca^2+ influx was measured in HEK-293 cells stably transfected with the receptor using Screen Quest™ Fluo-8 No Wash Calcium Assay Kit (AAt Bioquest®). Briefly, once inside the cells, the lipophilic blocking groups of Fluo-8 are cleaved by non-specific cell esterases, resulting in a negatively-charged fluorescent-dye that stays inside cells. Its fluorescence increases upon binding to calcium. When HEK-293/P2X7 cells were stimulated with BzATP, Ca^2+ entered the cells and the fluorescence of Fluo-8 NW increaseed.
To routinely test the compounds, HEK-293 cells stably transfected with rat P2X7R were seeded overnight in growth medium at 10000, 15000 or 20000 cells/well in 384-well plate, according to the level of response after thawing. 24 hours later, the medium was removed and the cells were pre-loaded at RT for 1 hour with 20 μL/w of Fluo-8 NW prepared in Tyrode 0.3 mM Ca^2+/Mg^2+-free.
Compounds were tested at […] according to the following method: • first injection at […] of 10 μL of 3× test compound (in Tyrode's buffer 0.3 mM Ca^2+/Mg^2+-free+DMSO 0.5% final concentration) • 5′ incubation • second injection at […] of 15 µL of 3× BzATP at ˜ECK) (in Tyrode's buffer 0.3 mM Ca^2+/Mg^2+-free+BSA 0.0003% final concentration) • Fluorescence recording for 3′
Between one plate and the following, tips were extensively washed with water, then with 100% DMSO and finally with water to avoid carry-over inside the tips.
The effect of the test compounds was measured as percent inhibition vs a reference antagonist and IC50 values were calculated accordingly.

Setting [1] is: Table 4, HEK-293 cells stably transfected with rat P2X7R, BzATP stimulation.
[2] abbreviates: Table 5, comparison with Compound 59 of WO2015118019.

Like-named read-outs stand apart in the source and are kept apart here.

Sequence of human P2X7 channel (Q99572 whole entry): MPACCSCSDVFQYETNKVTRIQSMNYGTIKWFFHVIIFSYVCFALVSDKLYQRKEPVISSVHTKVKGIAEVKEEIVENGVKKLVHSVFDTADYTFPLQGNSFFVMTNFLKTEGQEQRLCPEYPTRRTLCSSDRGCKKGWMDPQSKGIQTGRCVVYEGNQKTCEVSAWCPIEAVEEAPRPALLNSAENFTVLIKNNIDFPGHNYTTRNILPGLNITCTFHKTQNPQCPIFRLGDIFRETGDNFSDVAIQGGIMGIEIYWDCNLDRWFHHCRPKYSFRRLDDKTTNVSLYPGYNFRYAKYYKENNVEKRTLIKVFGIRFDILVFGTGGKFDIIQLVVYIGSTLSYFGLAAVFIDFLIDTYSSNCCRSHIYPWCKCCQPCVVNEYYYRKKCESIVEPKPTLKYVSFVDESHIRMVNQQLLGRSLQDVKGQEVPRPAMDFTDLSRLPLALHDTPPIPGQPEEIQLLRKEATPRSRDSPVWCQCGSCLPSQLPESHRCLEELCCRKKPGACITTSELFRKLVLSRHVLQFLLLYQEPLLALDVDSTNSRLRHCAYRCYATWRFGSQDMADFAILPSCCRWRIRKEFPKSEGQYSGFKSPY
Sequence of rat P2X7R (Q64663 whole entry): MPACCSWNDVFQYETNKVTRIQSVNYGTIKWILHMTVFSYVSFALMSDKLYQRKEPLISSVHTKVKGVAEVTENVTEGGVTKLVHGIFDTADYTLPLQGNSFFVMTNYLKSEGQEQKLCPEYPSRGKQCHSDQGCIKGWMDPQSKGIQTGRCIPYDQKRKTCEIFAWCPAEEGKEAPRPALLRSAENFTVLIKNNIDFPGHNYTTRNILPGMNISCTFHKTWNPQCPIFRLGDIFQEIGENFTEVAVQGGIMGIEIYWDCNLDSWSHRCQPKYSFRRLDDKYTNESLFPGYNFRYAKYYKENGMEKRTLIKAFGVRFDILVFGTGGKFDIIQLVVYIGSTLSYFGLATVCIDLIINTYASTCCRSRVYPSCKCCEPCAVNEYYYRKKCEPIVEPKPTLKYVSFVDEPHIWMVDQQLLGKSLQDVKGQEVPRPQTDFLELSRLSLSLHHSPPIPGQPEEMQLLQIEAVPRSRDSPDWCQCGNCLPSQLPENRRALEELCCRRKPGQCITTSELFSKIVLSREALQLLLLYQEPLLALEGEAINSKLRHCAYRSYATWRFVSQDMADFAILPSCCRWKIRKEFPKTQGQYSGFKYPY

For orientation: IC50 means the point on the concentration scale where inhibition reaches its midpoint. Turning to `Cc1ncsc1C(CNC(=O)c1c(F)cccc1Cl)N1CCC(OCc2ccc(F)cc2)CC1` (stereo not drawn) [Compound 1, 2-chloro-6-fluoro-N-(2-{4-[(4-fluorophenyl)methoxy]piperidin-1-yl)-2-(4-methyl-1,3-thiazol-5-yl}ethyl)benzamide], the IC50 on human P2X7 channel is 45 nM; at rat P2X7R (setting [1]), 1040 nM.
Turning to `Cc1ncsc1C(CNC(=O)c1c(F)cccc1Cl)N1CCC(OCc2cccc(F)c2)CC1` (stereo not drawn) [Compound 3, 2-chloro-6-fluoro-N-(2-{4-[(3-fluorophenyl)methoxy]piperidin-1-yl}-2-(4-methyl-1,3-thiazol-5-yl)ethyl)benzamide], the figures for the half-maximal inhibitory concentration (IC50) at human P2X7 channel and on rat P2X7R (setting [1]) were 5.95 nM and 373 nM, respectively.
The like results for `Cc1ncsc1C(CNC(=O)c1c(F)cccc1Cl)N1CCC(OCc2ccccc2F)CC1` (stereo not drawn) [Compound 4, 2-chloro-6-fluoro-N-(2-{4-[(2-fluorophenyl)methoxy]piperidin-1-yl}-2-(4-methyl-1,3-thiazol-5-yl)ethyl)benzamide] were, in that order, 28.1 nM and 953 nM.
The like results for `Cc1ncsc1C(CNC(=O)c1c(F)cccc1Cl)N1CCC(OCc2cc(F)cc(F)c2)CC1` (stereo not drawn) [Compound 5, 2-chloro-N-(2-{4-[(3,5-difluorophenyl)methoxy]piperidin-1-yl}-2-(4-methyl-1,3-thiazol-5-yl)ethyl)-6-fluorobenzamide] were, in that order, 35.1 nM and 506 nM.
The like results for `Cc1ncsc1C(CNC(=O)c1c(F)cccc1Cl)N1CCC(Oc2ccc(F)cc2)CC1` (stereo not drawn) [Compound 7, 2-chloro-6-fluoro-N-{2-[4-(4-fluorophenoxy)piperidin-1-yl]-2-(4-methyl-1,3-thiazol-5-yl)ethyl}benzamide] were, in that order, 51.5 nM and 709 nM.
In the case of `Cc1ncsc1C(CNC(=O)c1c(F)cccc1Cl)N1CCC(Oc2cccc(F)c2)CC1` (stereo not drawn) [Compound 9, 2-chloro-6-fluoro-N-{2-[4-(3-fluorophenoxy)piperidin-1-yl]-2-(4-methyl-1,3-thiazol-5-yl)ethyl}benzamide], the values for the IC50 at human P2X7 channel and on rat P2X7R (setting [1]) were 23.6 nM and 402 nM, respectively.
For `Cc1ncsc1C(CNC(=O)c1c(F)cccc1Cl)N1CCC(Oc2ccccc2F)CC1` (stereo not drawn) [Compound 10, 2-chloro-6-fluoro-N-{2-[4-(2-fluorophenoxy)piperidin-1-yl]-2-(4-methyl-1,3-thiazol-5-yl)ethyl}benzamide], the figures for the half-maximal inhibitory concentration (IC50) at human P2X7 channel and at rat P2X7R (setting [1]) were 42.9 nM and 583 nM, respectively.
With `Cc1ncsc1C(CNC(=O)c1c(F)cccc1Cl)N1CCC(Oc2ccc(F)c(F)c2)CC1` (stereo not drawn) [Compound 12, 2-chloro-N-{2-[4-(3,4-difluorophenoxy)piperidin-1-yl]-2-(4-methyl-1,3-thiazol-5-yl)ethyl}-6-fluorobenzamide], the IC50 turned out to be 25.8 nM on human P2X7 channel and 380 nM at rat P2X7R (setting [1]).
`Cc1ncsc1C(CNC(=O)c1cccc2ncccc12)N1CCC(OCc2ccc(F)cc2)CC1` (stereo not drawn) [Compound 13, N-(2-{4-[(4-fluorophenyl)methoxy]piperidin-1-yl}-2-(4-methyl-1,3-thiazol-5-yl)ethyl)quinoline-5-carboxamide]: the IC50 at human P2X7 channel amounted to 42.1 nM; on rat P2X7R (setting [1]), 371 nM.
The like results for `Cc1ncsc1C(CNC(=O)c1cccc2ncccc12)N1CCC(OCc2cccc(F)c2)CC1` (stereo not drawn) [Compound 15, N-(2-{4-[(3-fluorophenyl)methoxy]piperidin-1-yl}-2-(4-methyl-1,3-thiazol-5-yl)ethyl)quinoline-5-carboxamide] were, in that order, 11.6 nM and 288 nM.
The like results for `Cc1ncsc1C(CNC(=O)c1cccc2ncccc12)N1CCC(OCc2cc(F)cc(F)c2)CC1` (stereo not drawn) [Compound 17, N-(2-{4-[(3,5-difluorophenyl)methoxy]piperidin-1-yl}-2-(4-methyl-1,3-thiazol-5-yl)ethyl)quinoline-5-carboxamide] were, in that order, 32.9 nM and 432 nM.
On the same counts, the results for `Cc1ncsc1C(CNC(=O)c1cccc2ncccc12)N1CCC(OCc2ccc(F)c(F)c2)CC1` (stereo not drawn) [Compound 18, N-(2-{4-[(3,4-difluorophenyl)methoxy]piperidin-1-yl}-2-(4-methyl-1,3-thiazol-5-yl)ethyl)quinoline-5-carboxamide] are 36.9 nM and 374 nM.
For `Cc1ncsc1C(CNC(=O)c1cccc2ncccc12)N1CCC(Oc2cccc(F)c2)CC1` (stereo not drawn) [Compound 21, N-{2-[4-(3-fluorophenoxy)piperidin-1-yl]-2-(4-methyl-1,3-thiazol-5-yl)ethyl}quinoline-5-carboxamide], the IC50 on human P2X7 channel came out at 26.4 nM; on rat P2X7R (setting [1]), 268 nM; on rat P2X7R (setting [2]), 268 nM.
Consider `Cc1ncsc1C(CNC(=O)c1cccc2ncccc12)N1CCC(Oc2ccc(F)c(F)c2)CC1` (stereo not drawn) [Compound 24, N-{2-[4-(3,4-difluorophenoxy)piperidin-1-yl]-2-(4-methyl-1,3-thiazol-5-yl)ethyl}quinoline-5-carboxamide], for which the IC50 at human P2X7 channel was determined as 57.9 nM; on rat P2X7R (setting [1]), 201 nM; at rat P2X7R (setting [2]), 201 nM.
For the molecule `O=C(NCC(c1scnc1C(F)F)N1CCC(Oc2cccc(F)c2)CC1)c1c(F)cccc1Cl` (stereo not drawn) [Compound 29, 2-chloro-N-{2-[4-(difluoromethyl)-1,3-thiazol-5-yl]-2-[4-(3-fluorophenoxy)piperidin-1-yl]ethyl}-6-fluorobenzamide], the IC50 at human P2X7 channel was 28.9 nM; at rat P2X7R (setting [1]), 441 nM.
The like results for `O=C(NCC(c1scnc1C(F)F)N1CCC(Oc2ccccc2F)CC1)c1c(F)cccc1Cl` (stereo not drawn) [Compound 30, 2-chloro-N-{2-[4-(difluoromethyl)-1,3-thiazol-5-yl]-2-[4-(2-fluorophenoxy)piperidin-1-yl]ethyl}-6-fluorobenzamide] were, in that order, 40.7 nM and 329 nM.
On the same counts, the results for `O=C(NCC(c1scnc1C(F)F)N1CCC(OCc2ccc(F)c(F)c2)CC1)c1cccc2ncccc12` (stereo not drawn) [Compound 33, N-{2-[4-(difluoromethyl)-1,3-thiazol-5-yl]-2-{4-[(3,4-difluorophenyl)methoxy]piperidin-1-yl}ethyl}quinoline-5-carboxamide] are 56.2 nM and 182 nM.
In the case of `O=C(NCC(c1scnc1C(F)F)N1CCC(Oc2ccc(F)cc2)CC1)c1cccc2ncccc12` (stereo not drawn) [Compound 34, N-{2-[4-(difluoromethyl)-1,3-thiazol-5-yl]-2-[4-(4-fluorophenoxy)piperidin-1-yl]ethyl}quinoline-5-carboxamide], the IC50 at human P2X7 channel was found to be 39.7 nM; at rat P2X7R (setting [1]) it was 144 nM; at rat P2X7R (setting [2]), 144 nM.
As for `O=C(NCC(c1scnc1C(F)F)N1CCC(Oc2ccc(Cl)cc2)CC1)c1cccc2ncccc12` (stereo not drawn) [Compound 35, N-{2-[4-(4-chlorophenoxy)piperidin-1-yl]-2-[4-(difluoromethyl)-1,3-thiazol-5-yl]ethyl}quinoline-5-carboxamide], on rat P2X7R (setting [1]), the half-inhibitory concentration (IC50) is 323 nM.
In the case of `O=C(NCC(c1scnc1C(F)F)N1CCC(Oc2cccc(F)c2)CC1)c1cccc2ncccc12` (stereo not drawn) [Compound 36, N-{2-[4-(difluoromethyl)-1,3-thiazol-5-yl]-2-[4-(3-fluorophenoxy)piperidin-1-yl]ethyl}quinoline-5-carboxamide], the IC50 at rat P2X7R (setting [1]) was 295 nM.
For `O=C(NCC(c1scnc1C(F)F)N1CCC(Oc2ccccc2F)CC1)c1cccc2ncccc12` (stereo not drawn) [Compound 37, N-{2-[4-(difluoromethyl)-1,3-thiazol-5-yl]-2-[4-(2-fluorophenoxy)piperidin-1-yl]ethyl}quinoline-5-carboxamide], the IC50 at human P2X7 channel worked out at 43.2 nM; on rat P2X7R (setting [1]), 133 nM; at rat P2X7R (setting [2]), 133 nM.
`O=C(NCC(c1scnc1C(F)F)N1CCC(Oc2cc(F)cc(F)c2)CC1)c1cccc2ncccc12` (stereo not drawn) [Compound 38, N-{2-[4-(difluoromethyl)-1,3-thiazol-5-yl]-2-[4-(3,5-difluorophenoxy)piperidin-1-yl]ethyl}quinoline-5-carboxamide]: the IC50 at rat P2X7R (setting [1]) was found to be 216 nM.

The record behind these values is patent publication US10669267B2, “Substituted N-[2-(4-phenoxypiperidin-1-yl)-2-(1,3-thiazol-5-yl)ethyl]benzamide and N-[2-(4-benzyloxypiperidin-1-yl)-2-(1,3-thiazol-5-yl)ethyl]benzamide derivatives P2X7 receptor antagonists” (Axxam S.P.A., priority 2016, dated 2020).
